Values quoted from earlier work in patent US20260021069A1, “ADVANTAGEOUS FLUOROB[…] THE TREATMENT OF MENTAL DISORDERS OR ENHANCEMENT” (TACTOGEN INC, priority 2023, published 2026).

How the values were obtained:
DAT and SERT [1] = conditions: release based; Rothman et al. 2012
DAT and SERT [2] = conditions: uptake inhibition IC50 based; literature value
[3] = after 75 or 125 mg MDMA; standard deviation of 1.3 hours; Vizeli & Liechti 2017
DAT and NET = conditions: Rothman et al. 2001

Row | Structure (SMILES) | DAT/SERT EC50 ratio (DAT and SERT [1]) | DAT/SERT ratio (1/IC50 at DAT divided by 1/IC50 at SERT) (DAT and SERT [2]) | duration of acute therapeutic effects [3] [h] | DAT/NET EC50 ratio (DAT and NET)
1 | CCNC(C)Cc1ccc2c(c1)OCO2 (stereo not drawn) [MDEA, 3,4-methylenedioxy-N-ethylamphetamine] | 0.76 | 3.2 |  | 
2 | CNC(C)Cc1ccc2c(c1)OCO2 (stereo not drawn) [MDMA] |  | 0.08 | 4.2 | 
3 | C[C@H](N)Cc1ccccc1 [d-amphetamine] |  |  |  | 0.9
4 | CN[C@@H](C)Cc1ccccc1 [d-methamphetamine] |  |  |  | 0.5
